Assay results from patent US20240025903A1, “Bicyclic Compounds and Uses Thereof for the Treatment of Diseases” (Athira Pharma, Inc., priority 2020, published 2024).

How the values were obtained:
MDCK cells = assay: Cell scattering behavior assay; format: cell-based; design: key: − indicates that the compound failed to significantly promote cell scattering behavior; + indicates maximum potency at or above 100 nM; ++ indicates maximum potency at or above 10 nM; +++ indicates maximum potency at or above 1 nM; ++++ indicates maximum potency at or above 0.1 nM; settings: 5 ng/mL HGF, 24 hours, normalized particle count vs HGF alone
Procedure: MDCK cells were grown under normal conditions and observed to spontaneously form tight colonies as they proliferate. MDCK cells respond to HGF treatment by moving away from each other (scattering), which is quantified to assess the amount of HGF/MET activation in the cell population. In this experiment, MDCK cells were plated in a 96-well format, treated with HGF and exemplary compounds, fluorescently stained, imaged in large fields, and scattering behavior was quantified. Quantification was determined by analyzing the number of continuous groups of cells compared to the total stained area imaged (normalized particle counts).
MDCK cells were plated at low density in black-walled imaging plates and allowed to attach overnight at 37° C. and 5% CO2 in DMEM+10% FBS. Cells were then starved to 2 hours in DMEM without FBS (“starve media”). Samples containing exemplary compounds were prepared in DMEM without FBS and included 5 ng/mL HGF protein (“treatment media”). A control curve was also prepared for each plate using HGF concentrations of 0, 5, 10, and 20 ng/mL. Starve media was replaced with treatment media and cells were incubated for 24 hours at 37° C. and 5% CO2.
After incubation, cells were fixed by replacing treatment media with cold ethanol and incubating for 20 minutes at 4° C. Cells were then rehydrated by washing with PBS and then with stain solution (fluorescent wheat germ agglutinin; WGA488 at 20 μg/mL in PBS). Cells were incubated with stain solution 30 minutes at room temperature after which stain solution was replaced with fresh PBS.
Fields of cells were imaged using an iCyte high content imager in the green wavelength. Images were converted to binary and analyzed for particle size and particle count. For the purpose of analysis, an individual cell touching no other cells or separated colonies of cells were identified as particles, and particle counts were normalized by the total signal area to account for differences in cell number. […] Compound potency was assessed by statistical increase in normalized particle count compared to HGF treatment alone.

HGF/MET system = molecular target: T1, HGF/MET system (Homo sapiens, UniProt P08581+P14210); assay: Phospho-MET ELISA; format: cell-based; design: key: − indicates that the compound failed to significantly augment MET phosphorylation; + indicates maximum potency at or above 100 nM; ++ indicates maximum potency at or above 10 nM; +++ indicates maximum potency at or above 1 nM; ++++ indicates maximum potency at or above 0.1 nM; settings: HEK293 cells, 1 ng/mL recombinant HGF, 15 minutes, pMET ELISA
T1 construct: HEK293 cells were prepared by passage into 6-well multi-plates; endogenous in cells; host or cells: HEK293
Procedure: Compounds were screened for potency towards the HGF/MET system using phospho-MET (pMET) ELISA kits (Cell Signaling). pMET levels were detected in samples having low (1 ng/mL) and high (10 ng/mL) concentrations of HGF.
HEK293 cells were prepared by passage into 6-well multi-plates and grown at 37° C. at 5% CO2 in DMEM+10% FBS until approximately 90% confluent. Cells were then starved for at least 8 hours in serum-free growth media.
Exemplary compounds were prepared in DMEM+0.1% FBS, diluted and added to treatment media with 1 ng/mL recombinant HGF protein (R&D Systems). Cells were incubated in triplicate at 37° C. and 5% CO2 for 15 minutes. Samples were then treated with 180 μL ice-cold RIPA (radioimmunoprecipitation assay) buffer and cells were lysed on ice for 15 minutes. Lysates were cleared by centrifugation at 16,000-g for 15 minutes and the supernatant was retained. Samples were normalized using a BCA assay of lysates to determine protein concentrations across the samples.
Between 50 and 100 μg total protein lysate was loaded into ELISA wells in pMET Sandwich ELISA kit (Cell Signaling Catalog #7227C), ensuring equal protein load in each well. The ELISA was processed according to manufacturer's instructions. After color developed, absorbance was read on an optical plate reader at 450 nm.
Potency measurements were determined using peak efficacy by scaling test compound dose treatments along a scale of 1-10 between 1 ng/mL and 10 ng/mL HGF doses according to the following formula: […]
where y is the normalized data-point, x is the raw data point, A is the mean HGF at 1 ng/mL, and B is the mean HGF at 10 ng/mL.

[1] = Turbidimetric solubility assay; format: physicochemical; settings: aqueous buffer, kinetic from dmso stock, PBS, 37° C., absorbance 620 nm
Procedure: Aqueous solubility is a critical drug property that helps to predict bioavailability. Generally, compounds with aqueous solubility <100 μg/ml are poor drugs.
To assess a compound's solubility by turbidity, test compounds were first dissolved in organic solvent (DMSO) at a concentration of 10 mM. This compound solution was then diluted in aqueous solvent (PBS) in a dilution series from […] in a 96-well assay plate. Solutions were incubated at 37° C. for 2 hours.
In wells with test compounds over their solubility limit, the compound will precipitate, effectively blocking the passage of light and thus increasing the absorbance signal of UV light at a wavelength of 620 nm. Compounds were considered insoluble at a tested concentration if turbidity raises the absorbance more than 10% above control reads.

T1 sequence (P08581 308-1390 limits assumed): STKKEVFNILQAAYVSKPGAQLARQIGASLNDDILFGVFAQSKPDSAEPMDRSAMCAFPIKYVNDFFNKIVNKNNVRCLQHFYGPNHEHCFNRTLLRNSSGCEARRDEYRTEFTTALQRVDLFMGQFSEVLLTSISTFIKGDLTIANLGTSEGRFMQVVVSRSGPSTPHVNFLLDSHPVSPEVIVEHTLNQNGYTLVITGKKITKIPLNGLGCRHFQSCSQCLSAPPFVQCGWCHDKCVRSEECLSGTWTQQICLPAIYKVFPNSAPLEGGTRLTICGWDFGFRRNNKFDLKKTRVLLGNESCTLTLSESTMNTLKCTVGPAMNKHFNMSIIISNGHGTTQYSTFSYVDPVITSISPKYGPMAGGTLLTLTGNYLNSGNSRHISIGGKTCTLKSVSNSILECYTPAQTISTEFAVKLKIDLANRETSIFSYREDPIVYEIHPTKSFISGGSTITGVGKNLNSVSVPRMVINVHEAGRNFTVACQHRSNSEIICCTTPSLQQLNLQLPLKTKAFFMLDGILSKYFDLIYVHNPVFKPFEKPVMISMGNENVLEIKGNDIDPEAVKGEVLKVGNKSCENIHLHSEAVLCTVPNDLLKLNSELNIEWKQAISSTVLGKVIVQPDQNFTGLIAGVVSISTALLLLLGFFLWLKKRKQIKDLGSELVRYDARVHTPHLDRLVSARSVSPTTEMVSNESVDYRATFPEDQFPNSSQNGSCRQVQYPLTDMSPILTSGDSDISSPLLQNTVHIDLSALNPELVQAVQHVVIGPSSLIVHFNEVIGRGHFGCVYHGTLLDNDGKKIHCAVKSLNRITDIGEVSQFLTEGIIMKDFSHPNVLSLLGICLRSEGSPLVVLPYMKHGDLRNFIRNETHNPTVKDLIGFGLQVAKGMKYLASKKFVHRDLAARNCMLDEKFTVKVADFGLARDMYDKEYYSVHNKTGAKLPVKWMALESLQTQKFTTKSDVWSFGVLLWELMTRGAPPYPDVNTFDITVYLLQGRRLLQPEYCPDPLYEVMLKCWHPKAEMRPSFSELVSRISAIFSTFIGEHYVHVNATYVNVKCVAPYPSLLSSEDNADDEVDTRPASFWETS
T1 sequence (P14210 32-494 limits assumed): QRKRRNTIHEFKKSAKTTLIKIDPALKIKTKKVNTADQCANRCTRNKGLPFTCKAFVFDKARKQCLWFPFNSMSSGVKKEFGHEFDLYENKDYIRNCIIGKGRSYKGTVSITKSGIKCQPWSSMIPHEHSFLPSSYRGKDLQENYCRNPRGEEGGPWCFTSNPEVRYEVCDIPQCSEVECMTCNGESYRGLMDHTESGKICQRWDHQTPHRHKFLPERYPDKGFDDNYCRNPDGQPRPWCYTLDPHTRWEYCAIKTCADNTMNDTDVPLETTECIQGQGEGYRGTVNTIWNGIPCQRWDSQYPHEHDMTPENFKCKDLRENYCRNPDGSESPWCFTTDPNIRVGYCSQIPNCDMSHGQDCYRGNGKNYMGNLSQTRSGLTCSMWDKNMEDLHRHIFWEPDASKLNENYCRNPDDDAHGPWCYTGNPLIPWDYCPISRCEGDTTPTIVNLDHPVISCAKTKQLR

SMILES | Potency (cell scattering) (MDCK cells) | Potency (augmentation of MET phosphorylation) (HGF/MET system) | solubility at 2 h [1]
CCC(C)CN1CC2N(C(=O)c3ccc(Cl)cc3)CCC(=O)N2C(C)C1=O (centres unmarked) [Compound 10, 1-(4-chlorobenzoyl)-6-methyl-8-(2-methylbutyl)hexahydro-4H-pyrazino[1,2-a]pyrimidine-4,7(6H)-dione] | − | − | > 300 µM
CC1C(=O)N(CC2CCCC2)CC2N(C(=O)c3ccc(OC(F)F)cc3)CCC(=O)N12 (centres unmarked) [Compound 13] | − | − | > 300 µM
CC1C(=O)N(CC2CCCC2)CC2N(C(=O)c3ccc(C(F)(F)F)cc3)CCC(=O)N12 (centres unmarked) [Compound 15] | − | − | > 300 µM
CC1C(=O)N(CC2CCC2)CC2N(C(=O)c3ccc(C(F)(F)F)cc3)CCC(=O)N12 (centres unmarked) [Compound 16] | − | − | > 300 µM
C=CCCN1CC2N(C(=O)c3ccc(OC(F)F)cc3)CCC(=O)N2C(C)C1=O (centres unmarked) [Compound 18] | − | − | > 300 µM
CCCCN1CC2N(C(=O)c3ccc(C(F)(F)F)cc3)CCC(=O)N2C(C)C1=O (centres unmarked) [Compound 21] | − | − | > 300 µM
CC(C)CN1CC2N(C(=O)c3ccc(C(F)(F)F)cc3)CCC(=O)N2C(C)C1=O (centres unmarked) [Compound 23] | − | − | > 300 µM
CC(C)N1CC2N(C(=O)c3ccc(C(F)(F)F)cc3)CCC(=O)N2C(C)C1=O (centres unmarked) [Compound 24] | − | − | > 300 µM
CC1C(=O)N(CCc2ccco2)CC2N(C(=O)c3ccc(OC(F)F)cc3)CCC(=O)N12 (centres unmarked) [Compound 25] | − | − | > 300 µM
CC1C(=O)N(CCc2cccs2)CC2N(C(=O)c3ccc(OC(F)F)cc3)CCC(=O)N12 (centres unmarked) [Compound 26] | − | − | > 300 µM
CC1C(=O)N(CC2CCCO2)CC2N(C(=O)c3ccc(OC(F)F)cc3)CCC(=O)N12 (centres unmarked) [Compound 27] |  | − | > 100 µM
CC1C(=O)N(CCc2ccccc2)CC2N(C(=O)c3ccc(OC(F)F)cc3)CCC(=O)N12 (centres unmarked) [Compound 28] | − | − | > 100 µM
CC1C(=O)N(CCc2ccncc2)CC2N(C(=O)c3ccc(OC(F)F)cc3)CCC(=O)N12 (centres unmarked) [Compound 29] |  | − | > 300 µM
CC1C(=O)N(CCC2CC2)CC2N(C(=O)c3ccc(OC(F)F)cc3)CCC(=O)N12 (centres unmarked) [Compound 31] | − | − | > 300 µM
COCCN1CC2N(C(=O)c3ccc(OC(F)F)cc3)CCC(=O)N2C(C)C1=O (centres unmarked) [Compound 32] | − | − | > 300 µM
COCCCN1CC2N(C(=O)c3ccc(OC(F)F)cc3)CCC(=O)N2C(C)C1=O (centres unmarked) [Compound 33] | − | − | > 300 µM
CC1C(=O)N(CCO)CC2N(C(=O)c3ccc(OC(F)F)cc3)CCC(=O)N12 (centres unmarked) [Compound 34, 1-(4-(difluoromethoxy)benzoyl)-8-(2-hydroxyethyl)-6-methylhexahydro-4H-pyrazino[1,2-a]pyrimidine-4,7(6H)-dione] | − | − | > 300 µM
CC1C(=O)N(CCN)CC2N(C(=O)c3ccc(OC(F)F)cc3)CCC(=O)N12 (centres unmarked) [Compound 35, 8-(2-aminoethyl)-1-(4-(difluoromethoxy)benzoyl)-6-methylhexahydro-4H-pyrazino[1,2-a]pyrimidine-4,7(6H)-dione] | − | − | > 300 µM
CC1C(=O)N(CCS(C)(=O)=O)CC2N(C(=O)c3ccc(OC(F)F)cc3)CCC(=O)N12 (centres unmarked) [Compound 36] | − | − | > 300 µM
CC1C(=O)N(CCC2CCCC2)CC2N(Cc3ccc(OC(F)F)cc3)CCC(=O)N12 (centres unmarked) [Compound 38] |  | − | > 100 µM
CC1C(=O)N(CCC2CCC2)CC2N(Cc3ccc(OC(F)F)cc3)CCC(=O)N12 (centres unmarked) [Compound 40] |  | − | > 300 µM
CC1C(=O)N(CCC2CCC2)CC2N(Cc3ccc(F)cc3)CCC(=O)N12 (centres unmarked) [Compound 45, 8-(2-cyclobutylethyl)-1-(4-fluorobenzyl)-6-methylhexahydro-4H-pyrazino[1,2-a]pyrimidine-4,7(6H)-dione] |  | − | > 300 µM
CCC(C)CN1CC2N(Cc3ccc(OC(F)F)cc3)CCC(=O)N2C(CF)C1=O (centres unmarked) [Compound 47, 1-(4-(difluoromethoxy)benzyl)-6-(fluoromethyl)-8-(2-methylbutyl)hexahydro-4H-pyrazino[1,2-a]pyrimidine-4,7(6H)-dione] |  | − | > 300 µM
CCC(C)CN1CC2N(Cc3ccc(C(F)(F)F)cc3)CCC(=O)N2C(CF)C1=O (centres unmarked) [Compound 48, 6-(fluoromethyl)-8-(2-methylbutyl)-1-(4-(trifluoromethyl)benzyl)hexahydro-4H-pyrazino[1,2-a]pyrimidine-4,7(6H)-dione] |  | − | > 100 µM
